Assay results: ChEMBL document CHEMBL3992488, “Anticancer agents interacting with membrane glucose transporters” (Medchemcomm, 2016)
Changes are numbered by the printed parent chain.

What was measured:
[1] = target: T1, Solute carrier family 2, facilitated glucose transporter member 1 (Homo sapiens) (UniProt P11166); assay: Inhibition of GLUT1 in human HT1080 cells assessed as reduction in [3H]2-deoxy-D-glucose uptake at 10 uM preincubated for 30 mins followed by [3H]2-deoxy-D-glucose addition measured after 60 mins by microbeta scintillation counting method relative to control; type: cell-based
T1 sequence (whole entry): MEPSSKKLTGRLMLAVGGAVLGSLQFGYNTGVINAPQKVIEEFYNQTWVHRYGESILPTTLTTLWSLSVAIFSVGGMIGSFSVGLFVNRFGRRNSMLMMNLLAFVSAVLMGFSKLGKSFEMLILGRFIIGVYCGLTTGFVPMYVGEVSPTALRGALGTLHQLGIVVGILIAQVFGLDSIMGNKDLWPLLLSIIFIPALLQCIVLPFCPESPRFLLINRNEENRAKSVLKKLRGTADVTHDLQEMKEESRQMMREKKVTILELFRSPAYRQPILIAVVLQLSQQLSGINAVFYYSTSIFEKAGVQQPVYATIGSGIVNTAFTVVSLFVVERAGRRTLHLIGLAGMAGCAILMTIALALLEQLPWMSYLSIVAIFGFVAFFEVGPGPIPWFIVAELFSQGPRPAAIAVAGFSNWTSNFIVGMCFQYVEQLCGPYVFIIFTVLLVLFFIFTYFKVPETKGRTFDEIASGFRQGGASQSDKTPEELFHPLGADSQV

[2] = target: T2, Solute carrier family 2, facilitated glucose transporter member 1 (Homo sapiens, UniProt P11166); assay: Inhibition of GLUT1 in human A431 cells assessed as reduction in 2-[1,2-3H]deoxy-D-glucose uptake measured after 30 mins by liquid scintillation counting method; type: cell-based
T2 sequence (P11166 whole entry): T1 sequence (whole entry)

[3] = target: T2, Solute carrier family 2, facilitated glucose transporter member 1; assay: Competitive inhibition of GLUT1 (unknown origin) expressed in CHO cells assessed as reduction in 2-[1,2-3H]deoxy-D-glucose uptake measured for 30 secs by double reciprocal plot analysis; type: cell-based
[4] = target: T2, Solute carrier family 2, facilitated glucose transporter member 1; assay: Competitive inhibition of glucose displaceable binding of [4-3H]cytochalasin B to GLUT1 in human erythrocyte membranes after 10 mins by double reciprocal plot analysis; type: cell membranes
[5] = target: T2, Solute carrier family 2, facilitated glucose transporter member 1; assay: Competitive inhibition of GLUT1 in human HL60 cells assessed as reduction in 2-[1,2-3H]deoxy-D-glucose uptake measured for 30 secs by double reciprocal plot analysis; type: cell-based
[6] = target: T3, Solute carrier family 2, facilitated glucose transporter member 4 (Mus musculus, UniProt P14142); assay: Inhibition of GLUT4 in mouse 3T3L1 cells assessed as reduction in insulin-stimulated 2-deoxy-D-[14C]glucose uptake; type: cell-based
T3 sequence (P14142 whole entry): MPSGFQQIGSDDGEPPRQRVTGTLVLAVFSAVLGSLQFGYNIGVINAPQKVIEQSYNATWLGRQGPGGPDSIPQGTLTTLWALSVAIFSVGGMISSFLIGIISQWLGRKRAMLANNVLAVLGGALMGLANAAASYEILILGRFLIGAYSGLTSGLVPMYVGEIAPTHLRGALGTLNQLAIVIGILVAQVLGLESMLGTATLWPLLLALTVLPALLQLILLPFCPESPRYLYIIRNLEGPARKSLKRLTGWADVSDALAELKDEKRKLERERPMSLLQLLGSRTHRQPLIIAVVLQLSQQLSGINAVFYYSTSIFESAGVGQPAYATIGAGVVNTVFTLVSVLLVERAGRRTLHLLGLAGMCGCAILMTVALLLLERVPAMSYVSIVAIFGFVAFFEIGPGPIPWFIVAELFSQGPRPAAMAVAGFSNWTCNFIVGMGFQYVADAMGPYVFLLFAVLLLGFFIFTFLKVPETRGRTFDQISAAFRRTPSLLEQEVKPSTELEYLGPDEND

[7] = target: T2, Solute carrier family 2, facilitated glucose transporter member 1; assay: Mixed type non-competitive inhibition of glucose displaceable binding of [4-3H]cytochalasin B to GLUT1 in human erythrocyte membranes after 10 mins; type: cell membranes
RCC4 = assay: Growth inhibition of VHL-deficient human RCC4 cells by XTT assay; type: functional, cell-based
[8] = target: T2, Solute carrier family 2, facilitated glucose transporter member 1; assay: Inhibition of human GLUT1 expressed in human DLD1 cells assessed as reduction in glucose uptake; type: cell-based
[9] = target: T4, Solute carrier family 2, facilitated glucose transporter member 4 (Homo sapiens, UniProt P14672); assay: Inhibition of human GLUT4 expressed in CHO cells assessed as reduction in glucose uptake; type: cell-based
T4 sequence (P14672 whole entry): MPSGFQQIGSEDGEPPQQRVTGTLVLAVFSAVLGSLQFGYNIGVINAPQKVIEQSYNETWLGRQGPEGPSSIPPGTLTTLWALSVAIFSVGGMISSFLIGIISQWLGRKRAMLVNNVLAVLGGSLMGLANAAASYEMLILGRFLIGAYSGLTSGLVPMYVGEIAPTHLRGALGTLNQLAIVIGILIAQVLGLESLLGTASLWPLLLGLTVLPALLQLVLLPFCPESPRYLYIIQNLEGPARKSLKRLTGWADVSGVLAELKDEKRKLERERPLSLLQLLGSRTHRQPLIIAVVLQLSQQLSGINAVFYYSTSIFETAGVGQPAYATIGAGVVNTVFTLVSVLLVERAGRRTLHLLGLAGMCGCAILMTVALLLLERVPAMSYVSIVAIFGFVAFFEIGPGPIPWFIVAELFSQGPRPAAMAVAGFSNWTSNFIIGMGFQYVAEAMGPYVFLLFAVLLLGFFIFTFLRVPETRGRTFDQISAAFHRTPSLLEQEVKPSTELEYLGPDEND

[10] = target: T5, Solute carrier family 2, facilitated glucose transporter member 2 (Homo sapiens, UniProt P11168); assay: Inhibition of human GLUT2 expressed in Xenopus laevis oocytes assessed as reduction in [3H] 2-deoxyglucose uptake by scintillation spectrometric method; type: cell-based
T5 sequence (P11168 whole entry): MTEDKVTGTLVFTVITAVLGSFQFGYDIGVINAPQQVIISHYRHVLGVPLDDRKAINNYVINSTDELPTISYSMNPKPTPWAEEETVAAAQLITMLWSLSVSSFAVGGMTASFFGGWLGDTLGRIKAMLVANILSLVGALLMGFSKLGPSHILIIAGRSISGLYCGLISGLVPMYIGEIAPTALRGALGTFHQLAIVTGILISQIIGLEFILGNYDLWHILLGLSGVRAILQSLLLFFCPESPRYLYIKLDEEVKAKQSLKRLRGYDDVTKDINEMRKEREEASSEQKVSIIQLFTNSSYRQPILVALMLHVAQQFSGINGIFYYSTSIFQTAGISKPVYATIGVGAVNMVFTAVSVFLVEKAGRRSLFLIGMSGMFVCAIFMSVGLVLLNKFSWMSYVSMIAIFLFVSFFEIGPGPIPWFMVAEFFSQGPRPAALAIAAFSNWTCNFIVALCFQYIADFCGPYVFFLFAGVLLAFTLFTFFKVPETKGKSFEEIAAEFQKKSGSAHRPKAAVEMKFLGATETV

[11] = target: T5, Solute carrier family 2, facilitated glucose transporter member 2; assay: Inhibition of human GLUT2 expressed in Xenopus laevis oocytes assessed as reduction in [14C]fructose uptake by scintillation spectrometric method; type: cell-based
[12] = target: T6, Solute carrier family 2, facilitated glucose transporter member 4 (Rattus norvegicus, UniProt P19357); assay: Competitive inhibition of GLUT4 in Wistar rat adipocytes assessed as reduction in insulin-stimulated 3-O-[3H]methyl-D-glucose uptake measured for 30 secs by Lineweaver-Burk plot analysis; type: cell-based
T6 sequence (P19357 whole entry): T3 sequence (P14142 whole entry) with D11E, R17Q, L208I, I218L, M273L, S316L, G320E, A379S, K467R, A482T

[13] = target: T2, Solute carrier family 2, facilitated glucose transporter member 1; assay: Inhibition of GLUT1-mediated [14C]glucose uptake in human erythrocytes; type: cell-based
Homo sapiens = organism: Homo sapiens; assay: Inhibition of PI3K in human MCF7 cells assessed as reduction in insulin-stimulated GLUT4 translocation by measuring reduction in [1-14C]-2-deoxy-D-glucose uptake at 100 uM pretreated for 15 mins followed by insulin stimulation for 10 mins and subsequent addition of [1-14C]-2-deoxy-D-glucose measured after 10 mins relative to control; type: cell-based
[14] = Inhibition of PI3K in human U937 cells assessed as reduction in GLUT4 translocation by measuring reduction in 2-[1,2-3H(N)]deoxy-D-glucose uptake after 3 mins by scintillation spectrometric method; type: cell-based; settings: U-937
Mus musculus = organism: Mus musculus; assay: Inhibition of PI3K in mouse 3T3L1 cells assessed as reduction in insulin-stimulated GLUT4 translocation by measuring reduction in [1-14C]-2-deoxy-D-glucose uptake at 6 uM pretreated for 3 days followed by insulin stimulation for 10 mins and subsequent addition of [1-14C]-2-deoxy-D-glucose measured after 10 mins relative to control; type: cell-based
MCF7 = assay: Cytotoxicity against human MCF7 cells assessed as growth inhibition at 100 uM after 24 hrs by CellTiter 96 AQueous Non-Radioactive assay relative to control; type: functional; settings: MCF7, 24 h, read-out: GI
[15] = target: T3, Solute carrier family 2, facilitated glucose transporter member 4; assay: Competitive inhibition of GLUT4 in mouse 3T3L1 cells assessed as reduction in insulin-stimulated [3H]-2-deoxy-D-glucose uptake preincubated for 20 mins followed by measured for [3H]-2-deoxy-D-glucose addition measured after 1 to 10 mins by Lineweaver-Burk plot analysis; type: cell-based
PC-3 = assay: Cytotoxicity against human PC3 cells after 48 hrs by SRB assay; type: functional, cell-based; settings: PC-3, 48 h
[16] = Non-competitive inhibition of glucose transporter in HTR-8/SVneo cells assessed as reduction in [3H]DG uptake preincubated for 20 mins followed by [3H]DG addition after 10 mins by liquid scintillation counting method; type: cell-based; settings: Homo sapiens
[17] = target: T2, Solute carrier family 2, facilitated glucose transporter member 1; assay: Non-competitive inhibition of GLUT1-mediated facilitative uptake of [3H]-2-deoxy-D-glucose in human erythrocyte membranes; type: cell membranes
[18] = target: T2, Solute carrier family 2, facilitated glucose transporter member 1; assay: Inhibition of GLUT1-mediated glucose uptake in human A549 cells assessed as reduction in ATP synthesis up to 30 mins in presence of mitochondrial function blocker antimycin A; type: cell-based
[19] = target: T2, Solute carrier family 2, facilitated glucose transporter member 1; assay: Inhibition of GLUT1 (unknown origin)-mediated glucose uptake expressed in CHO-K1 cells assessed as reduction in ATP synthesis up to 30 mins in presence of mitochondrial function blocker antimycin A; type: cell-based
[20] = target: T2, Solute carrier family 2, facilitated glucose transporter member 1; assay: Inhibition of GLUT1 in human MCF7 cells assessed as reduction in [3H]-DG uptake pretreated for 20 mins followed by [3H]-DG addition measured after 6 mins by liquid scintillation counting method; type: cell-based

CC(C)NC(=O)COc1cccc(-c2nc(Nc3ccc4[nH]ncc4c3)c3ccccc3n2)c1
inhibition [1]: > 90%

C/C=C(\C)[C@H](O[C@@H]1O[C@H](CO)[C@@H](O)[C@H](O)[C@H]1O)[C@H](C)/C=C(C)/C=C/C/C(C)=C/Cc1nc(OC)c(OC)c(O)c1C
IC50 [2]: 0.0049 µM

O=c1c(-c2ccc(O)cc2)coc2cc(O)cc(O)c12 [GENISTEIN]
Ki [3]: 7 µM
Ki [4]: 7 µM
Ki [5]: 7 µM
IC50 [6]: 20 µM

Cc1cc2c(C(C)C)c(O)c(O)c(C=O)c2c(O)c1-c1c(C)cc2c(C(C)C)c(O)c(O)c(C=O)c2c1O [GOSSYPOL]
Ki [7]: 20 µM

CC(C)(C)c1ccc(S(=O)(=O)NCc2ccc(C(=O)Nc3cccnc3)cc2)cc1
IC50 (RCC4): 7.9 µM

C[C@H](NC(=O)[C@H](Cc1ccc(F)cc1)NC(=O)Cc1cccc(O)c1)c1ccccc1
IC50 [8]: 0.267 µM
IC50 [9]: 0.195 µM

O=c1c(O)c(-c2ccc(O)c(O)c2)oc2cc(O)cc(O)c12 [QUERCETIN]
IC50 [10]: 12 to 17 µM
IC50 [11]: 12 to 17 µM
Ki [12]: 16 µM

CS(=O)(=O)O[C@H]1[C@H](O)[C@@H](O)C(O)O[C@@H]1CO (stereo not given in full)
IC50 [13]: 32000 µM

O=C1C[C@@H](c2ccc(O)cc2)Oc2cc(O)cc(O)c21 [NARINGENIN]
inhibition (Homo sapiens): 50%
IC50 [14]: 50 µM
inhibition (Mus musculus): 20%
inhibition of growth at 100 µM (MCF7): 20%

COc1cc([C@H]2Oc3cc(-c4oc5cc(O)cc(O)c5c(=O)c4O)ccc3O[C@@H]2CO)ccc1O
Ki [15]: 114 µM

O=C1C[C@@H]2/C(=C(O)\C=C\c3ccccc3)C(=O)C=C[C@@H]2O1 [CRYPTOCARYONE]
IC50 (PC-3): 1.6 µM

COc1ccc(CC(=O)N[C@@H](Cc2ccccc2Br)C(=O)N[C@@H](C)c2ccccc2)cc1
IC50 [8]: 0.14 µM
IC50 [9]: 0.09 µM

O=C(CCCc1ccc(N(CCCl)CCCl)cc1)OC[C@H]1OC(O)[C@H](O)[C@@H](O)[C@@H]1O (stereo not given in full)
IC50 [13]: 65 µM

COc1cc(O)c(CC=C(C)C)c(O)c1C(=O)/C=C/c1ccc(O)cc1 [XANTHOHUMOL]
IC50 [16]: 3.55 µM

CCOC(=O)[C@@]12CCCCC/C=C\1N(Cc1cccc3ccccc13)C(=O)[C@H]2CC(=O)N1CCN(C(=O)c2ccco2)CC1
Ki [17]: 1.2 µM
IC50 [18]: 10 µM
IC50 [19]: 2 µM

O=c1c(O)c(-c2cc(O)c(O)c(O)c2)oc2cc(O)cc(O)c12 [MYRICETIN]
IC50 [10]: 12 to 17 µM
IC50 [11]: 12 to 17 µM
Ki [12]: 33.5 µM

CCOC(=O)[C@@]12CN(C(=O)OC(C)(C)C)CC=C1N(CCc1ccc(OC)c(OC)c1)C(=O)[C@H]2CC(=O)NCc1cccc2ccccc12
Ki [17]: 0.8 µM
IC50 [18]: 3 µM
IC50 [19]: 1 µM

O=c1c(O)c(-c2ccc(O)cc2)oc2cc(O)cc(O)c12 [KAEMPFEROL]
IC50 [20]: 4 µM

COc1cc([C@H]2Oc3cc([C@H]4Oc5cc(O)cc(O)c5C(=O)[C@@H]4O)ccc3O[C@@H]2CO)ccc1O [SILYBIN A]
Ki [15]: 60 µM
